# Several values for one entry are separate records, joined by “and”; a condition that tells them apart may be missing. Equal entries are not always repeated. Where two headings read alike, the source gives them in different places.
# Key:
# [1] = test system: M. tuberculosis H37Rv; test: microbe, parasite or virus in culture; format: cell-based, Mycobacterium tuberculosis; settings: for MIC90 / IC90 / MIC: Mycobacterium tuberculosis, H37RV; for MIC90: read-out: MIC (MIC90); for IC90: read-out: TB-IC90_OD GEOM_MEAN
# [2] = test system: Vero cells; test: cells; settings: Chlorocebus sabaeus, read-out: VERO IC50
# Procedure: (§1) Compounds were solubilized in DMSO and assayed as a 10-point 3-fold serial dilution. Compounds were incubated with cells for 2 days at 37 °C, 5% CO2. CellTiter-Glo Reagent (Promega) was added and relative luminescent units (RLU) measured.
# [3] = test system: Vero cells; settings: read-out: VERO IC50
# Procedure: as §1
# [4] = physchem; settings: aqueous with cosolvent or surfactant or cyclodextrin, kinetic from dmso stock
# [5] = physchem
# [6] = in vivo; settings: female, C57 Black, mouse, po, 10 mg/kg
# Procedure: Test compound was dosed as a bolus solution intravenously at 3 mg of free base/kilogram (dose volume 5 mL/kg; dose vehicle Saline or 10% DMSO; 40% PEG400; 50% saline) to female C57 Black (n = 3) or dosed orally by gavage as a solution at 10 mg of free base/kilogram (dose volume 10 mL/kg; dose vehicle 10% DMSO; 40% PEG400; 50% distilled water) to female C57 Black (n = 3/dose level). Blood samples were taken from each mouse tail vein at predetermined time points postdose, mixed with two volumes of distilled water, and stored frozen until UPLC/MS/MS analysis. Pharmacokinetic parameters were derived from the blood concentration time curve using PK Solutions software v 2.0 (Summit Research Services, USA).
# [7] = test system: Madin Darby Canine Kidney (MDCK)
# [8] = in vitro; settings: dog, MDCK-MDR1
# [9] = test system: M. tuberculosis H37Rv; parameters: species or system Mycobacterium tuberculosis; settings: in vivo
smiles,measurement,setting,value
"O=C(NO)c1sc(N2CCOCC2)cc1OCCc1ccccc1 [Compound 16, 5-Morpholino-3-(2-phenylethoxy)thiophene-2-carbohydroxamic Acid]",Cli mouse,"female, CD1, mouse, pH 7.4",6 mL.min^–1.g^–1
same,CL mouse MEAN,"mouse, microsomes",6.073 mL/min/g
same,MIC90,[1],3.5 µM
same,IC90,[1],3.32 µM
same,IC50,[2],58 µM
same,IC50,[3],58 µM
"c1ccc(CCOc2csc(N3CCOCC3)c2)cc1 [Compound 19, 4-[4-(2-Phenylethoxy)-2-thienyl]morpholine]",solubility kinetic,[4],174 µM
same,Cli mouse,"female, CD1, mouse, pH 7.4",37 mL.min^–1.g^–1
same,CL mouse MEAN,"mouse, microsomes",37.17 mL/min/g
same,MIC90,[1],> 20 µM
same,IC90,[1],> 20 µM
same,IC50,[2],68 µM
same,chromatographic logD,[5],1.96
same,IC50,[3],61.7 µM
"CNC(=O)c1sc(N2CCOCC2)cc1OCCc1ccccc1 [Compound 21, N-Methyl-5-morpholino-3-(2-phenylethoxy)thiophene-2-carboxamide]",Cli mouse,"female, CD1, mouse, pH 7.4",36 mL.min^–1.g^–1
same,CL mouse MEAN,"mouse, microsomes",35.49 mL/min/g
same,MIC90,[1],0.12 µM
same,MIC,[1]; read-out: MIC WT,0.08 µM
same,IC90,[1],0.133 µM
same,IC50,[2],91 µM
same,chromatographic logD,[5],2.44
same,IC50,[3],72.4 µM
"CCNC(=O)c1sc(N2CCOCC2)cc1OCCc1ccccc1 [Compound 22, N-Ethyl-5-morpholino-3-(2-phenylethoxy)thiophene-2-carboxamide]",Cli mouse,"female, CD1, mouse, pH 7.4",50 mL.min^–1.g^–1
same,CL mouse MEAN,"mouse, microsomes",50 mL/min/g
same,MIC90,[1],1.7 µM
same,IC90,[1],1.67 µM
same,IC50,[2],56 µM
same,IC50,[3],56 µM
"O=C(NCC(F)(F)F)c1sc(N2CCOCC2)cc1OCCc1ccccc1 [Compound 23, 5-Morpholino-3-phenethoxy-N-(2,2,2-trifluoroethyl)thiophene-2-carboxamide]",solubility kinetic,[4],67 µM
same,Cli mouse,"female, CD1, mouse, pH 7.4",30 mL.min^–1.g^–1
same,CL mouse MEAN,"mouse, microsomes",30.19 mL/min/g
same,MIC90,[1],3.4 µM
same,IC90,[1],3.32 µM
same,IC50,[2],> 100 µM
same,chromatographic logD,[5],3.11
"O=C(NC1CCC1)c1sc(N2CCOCC2)cc1OCCc1ccccc1 [Compound 24, N-Cyclobutyl-5-morpholino-3-phenethoxythiophene-2-carboxamide]",solubility kinetic,[4],175 µM
same,Cli mouse,"female, CD1, mouse, pH 7.4",0.5 mL.min^–1.g^–1
same,CL mouse MEAN,"mouse, microsomes",0.5 mL/min/g
same,MIC90,[1],> 20 µM
same,IC90,[1],> 20 µM
same,IC50,[2],24 µM
same,chromatographic logD,[5],3.21
same,IC50,[3],24 µM
"CON(C)C(=O)c1sc(N2CCOCC2)cc1OCCc1ccccc1 [Compound 25, N-Methoxy-N-methyl-5-morpholino-3-phenethoxythiophene-2-carboxamide]",Cli mouse,"female, CD1, mouse, pH 7.4",0.5 mL.min^–1.g^–1
same,CL mouse MEAN,"mouse, microsomes",0.5 mL/min/g
same,in vitro mouse Clint,"mouse, microsomes",<0.5 mL/min/g
same,MIC,[1]; read-out: H37Rv MIC,0.64 µg/mL
same,MIC90,[1],1.8 µM
same,IC90,[1],1.7 µM
same,AUC,[6],86.7 ng·h/mL
"CCOC(=O)NC(=O)c1sc(N2CCOCC2)cc1OCCc1ccccc1 [Compound 26, Ethyl N-[5-Morpholino-3-(2-phenylethoxy)thiophene-2-carbonyl]carbamate]",solubility kinetic,[4],65.8 µM
same,Cli mouse,"female, CD1, mouse, pH 7.4",1 mL.min^–1.g^–1
same,CL mouse MEAN,"mouse, microsomes",0.9584 mL/min/g
same,antitubercular whole cell activity (in words),[1],inactive
same,MIC90,[1],> 20 µM
same,IC90,[1],> 20 µM
same,IC50,[2],> 100 µM
same,chromatographic logD,[5],2.73
"NC(=O)c1sc(N2CCCCC2)cc1OCCc1ccccc1 [Compound 28, 3-(2-Phenylethoxy)-5-(1-piperidyl)thiophene-2-carboxamide]",solubility kinetic,[4],78.5 µM
same,Cli mouse,"female, CD1, mouse, pH 7.4",42 mL.min^–1.g^–1
same,CL mouse MEAN,"mouse, microsomes",42.23 mL/min/g
same,MIC90,[1],8.9 µM
same,IC90,[1],11 µM
same,IC50,[2],> 100 µM
same,chromatographic logD,[5],3.04
"NC(=O)c1sc(N2CCOCC2=O)cc1OCCc1ccccc1 [Compound 29, 5-(3-Oxomorpholino)-3-phenethoxythiophene-2-carboxamide]",solubility kinetic,[4],79 µM
same,Cli mouse,"female, CD1, mouse, pH 7.4",7 mL.min^–1.g^–1
same,CL mouse MEAN,"mouse, microsomes",6.629 mL/min/g
same,drop in potency / activity,[1],> 10 fold
same,MIC90,[1],15 µM
same,IC90,[1],10 µM
same,IC50,[2],> 100 µM
"CNC(=O)c1sc(N2CC3CC2CO3)cc1OCCc1ccccc1 (stereo not shown) [Compound 30, 5-(2-Oxa-5-azabicyclo[2.2.1]heptan-5-yl)-N-methyl-3-phenethoxythiophene-2-carboxamide]",Cli mouse,"female, CD1, mouse, pH 7.4",13 mL.min^–1.g^–1
same,CL mouse MEAN,"mouse, microsomes",12.51 mL/min/g
same,drop in potency / activity,[1],> 5 fold
same,MIC90,[1],3.8 µM
same,IC90,[1],3.64 µM
same,IC50,[2],72 µM
same,IC50,[3],69.2 µM
"NC(=O)c1sc(-n2cnc3ccccc32)cc1OCCc1ccccc1 [Compound 33, 5-(Benzimidazol-1-yl)-3-(2-phenylethoxy)thiophene-2-carboxamide]",solubility kinetic,[4],27.5 µM
same,Cli mouse,"female, CD1, mouse, pH 7.4",28 mL.min^–1.g^–1
same,CL mouse MEAN,"mouse, microsomes",28.23 mL/min/g
same,antitubercular whole cell activity (in words),[1],inactive
same,MIC90,[1],> 20 µM
same,IC90,[1],> 20 µM
same,IC50,[2],> 100 µM
same,chromatographic logD,[5],2.39
"NC(=O)c1sc(-n2nccn2)cc1OCCc1ccccc1 [Compound 34, 3-(2-Phenylethoxy)-5-(triazol-2-yl)thiophene-2-carboxamide]",solubility kinetic,[4],78.5 µM
same,Cli mouse,"female, CD1, mouse, pH 7.4",30 mL.min^–1.g^–1
same,CL mouse MEAN,"mouse, microsomes",30.46 mL/min/g
same,MIC90,[1],2 µM
same,IC90,[1],2.05 µM
same,IC50,[2],> 100 µM
same,chromatographic logD,[5],2.41
"NC(=O)c1sc(-c2ccncc2)cc1OCCc1ccccc1 [Compound 35, 3-(2-Phenylethoxy)-5-(4-pyridyl)thiophene-2-carboxamide]",solubility kinetic,[4],219 µM
same,Cli mouse,"female, CD1, mouse, pH 7.4",41 mL.min^–1.g^–1
same,CL mouse MEAN,"mouse, microsomes",40.84 mL/min/g
same,MIC90,[1],5.3 µM
same,MIC,[1]; read-out: MIC WT,5.8 µM
same,IC90,[1],5.08 µM
same,IC50,[2],5.9 µM
same,chromatographic logD,[5],1.9
same,IC50,[3],5.62 µM
NC(=O)c1sc(N2CCOCC2)cc1OCCc1ccccc1F [Compound 38],CL mouse MEAN,"female, CD1, mouse, microsomes, pH 7.4",25.22 mL/min/g
same,Cli mouse,"female, CD1, mouse, pH 7.4",25 mL.min^–1.g^–1
same,MIC90,[1],3.4 µM
same,IC90,[1],3.7 µM
same,IC50,[2],84 µM
same,chromatographic logD,[5],2.05
same,IC50,[3],83.2 µM
"NC(=O)c1sc(N2CCOCC2)cc1OCCc1cccc(F)c1 [Compound 39, 3-[2-(3-Fluorophenyl)ethoxy]-5-morpholinothiophene-2-carboxamide]",solubility kinetic,[4],219 µM
same,Cli mouse,"female, CD1, mouse, pH 7.4",18 mL.min^–1.g^–1
same,CL mouse MEAN,"mouse, microsomes",17.63 mL/min/g
same,MIC90,[1],0.43 µM
same,MIC,[1]; read-out: MIC WT,0.53 µM
same,IC90,[1],0.469 µM
same,IC50,[2],> 100 µM
same,chromatographic logD,[5],2.05
"NC(=O)c1cc(N2CCOCC2)ccc1OCCc1cccc(F)c1 [Compound 56, 2-[2-(3-Fluorophenyl)ethoxy]-5-morpholino-benzamide]",Cli mouse,"female, CD1, mouse, pH 7.4",6.4 mL.min^–1.g^–1
same,CL mouse MEAN,"mouse, microsomes",6.406 mL/min/g
same,MIC90,[1],2.8 µM
same,P-glycoprotein (P-gp) efflux (in words),[7]; MDCK-MDR1,no likely P-glycoprotein (P-gp) efflux issues
same,permeability (in words),[7]; MDCK-MDR1,good permeability
same,P-gp Efflux B→ A/A → B,"[7]; dog, MDCK",0.7
same,IC50,[2],> 100 µM
same,Papp A→B,[8],51 ×10⁻⁶ cm/s
same,Papp B→A,[8],37 ×10⁻⁶ cm/s
"COCCc1ccc(OCC(O)CNC(C)C)cc1 (stereo not shown) [Metoprolol, reference compound]",Papp A→B,[8],55 ×10⁻⁶ cm/s
same,Papp B→A,[8],40 ×10⁻⁶ cm/s
COc1c(N2C[C@@H]3CCCN[C@@H]3C2)c(F)cc2c(=O)c(C(=O)O)cn(C3CC3)c12 [Moxifloxacin],"log CFUs per mouse (lungs), individual mice",[9],3.8 log CFU (2×) and 4.4 log CFU and 4.0 log CFU and 3.9 log CFU
same,"log CFUs per mouse (lungs), mean",[9],4.0 log CFU
same,reduction of CFU lung number with respect to untreated mice,[9],2.8 logs
"C=C[C@H]1C[N@@]2CC[C@H]1C[C@@H]2[C@@H](O)c1ccnc2ccc(OC)cc12 [Quinidine, reference compound]",Papp B→A,[8],89 ×10⁻⁶ cm/s

# From paper PMC6089501 (Journal of Medicinal Chemistry, 2018)
